Measurements as given in the supplement of paper PMC10307832.

Key:
Experiment in all cases: relative viability (nuclei count vs DMSO), 5 days (fraction); higher = more cells survive
RO-3306 + Linsitinib = compound: C1=CC2=C(C=CC(=C2)C=C3C(=O)NC(=NCC4=CC=CS4)S3)N=C1 [RO-3306] + C[C@]1(O)C[C@@H](c2nc(-c3ccc4ccc(-c5ccccc5)nc4c3)c3c(N)nccn32)C1 [Linsitinib] (partner 1 µM)
In short: (§1)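 Five library-drug doses in √10 steps were combined with a fixed anchor-drug dose, or a single drug was given alone, by pin tool to lung cancer cell lines in 1536-well plates the day after seeding. Nuclei were stained and counted after 5 days. Relative viability is the nuclei count in treated wells over that in vehicle wells, taken as the median of duplicate plates.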

[1] = compound: O=S(=O)(c1ccccc1)N(CC(F)(F)F)c1ccc(C(O)(C(F)(F)F)C(F)(F)F)cc1 + COc1cccc2cc(-c3nc([C@H]4CC[C@H](C(=O)O)CC4)n4ncnc(N)c34)[nH]c12 [OSI-027] (partner 0.5 µM)
In short: as §1

RO-3306 + Olaparib = compound: C1=CC2=C(C=CC(=C2)C=C3C(=O)NC(=NCC4=CC=CS4)S3)N=C1 [RO-3306] + O=C(c1cc(Cc2n[nH]c(=O)c3ccccc23)ccc1F)N1CCN(C(=O)C2CC2)CC1 [Olaparib] (partner 8 µM)
In short: as §1

RO-3306 + Bortezomib = compound: C1=CC2=C(C=CC(=C2)C=C3C(=O)NC(=NCC4=CC=CS4)S3)N=C1 [RO-3306] + CC(C)C[C@H](NC(=O)[C@H](Cc1ccccc1)NC(=O)c1cnccn1)B(O)O [Bortezomib] (partner 0.002 µM)
In short: as §1

UMC-11 was tested, and the relative viability (RO-3306 + Linsitinib; first compound 0.01 µM) was 0.998, the relative viability (RO-3306 + Linsitinib; first compound 0.03162 µM) was 0.783 and the relative viability (RO-3306 + Linsitinib; first compound 0.1 µM) was 1.08. The relative viability (RO-3306 + Linsitinib; first compound 0.3162 µM) was 1.08, the relative viability (RO-3306 + Linsitinib; first compound 1 µM) was 1.03 and the relative viability ([1]; first compound 0.8 µM) was 0.491. It also gave a relative viability ([1]; first compound 2.53 µM) of 0.444, a relative viability ([1]; first compound 8 µM) of 0.526 and a relative viability (RO-3306 + Olaparib; first compound 0.01 µM) of 0.365. For the same cell line, the relative viability (RO-3306 + Olaparib; first compound 0.03162 µM) was 0.411, the relative viability (RO-3306 + Olaparib; first compound 0.1 µM) was 0.351 and the relative viability (RO-3306 + Olaparib; first compound 0.3162 µM) was 0.385. It also gave a relative viability (RO-3306 + Olaparib; first compound 1 µM) of 0.299, a relative viability (RO-3306 + Bortezomib; first compound 0.01 µM) of 1.22 and a relative viability (RO-3306 + Bortezomib; first compound 0.03162 µM) of 0.407. For the same cell line, the relative viability (RO-3306 + Bortezomib; first compound 0.1 µM) was 0.64, the relative viability (RO-3306 + Bortezomib; first compound 0.3162 µM) was 0.689 and the relative viability (RO-3306 + Bortezomib; first compound 1 µM) was 0.538.
